Molecules are shown by their SMILES.

human FGFR4 protein (460-802 amino acids), sequence (P22455 460-802): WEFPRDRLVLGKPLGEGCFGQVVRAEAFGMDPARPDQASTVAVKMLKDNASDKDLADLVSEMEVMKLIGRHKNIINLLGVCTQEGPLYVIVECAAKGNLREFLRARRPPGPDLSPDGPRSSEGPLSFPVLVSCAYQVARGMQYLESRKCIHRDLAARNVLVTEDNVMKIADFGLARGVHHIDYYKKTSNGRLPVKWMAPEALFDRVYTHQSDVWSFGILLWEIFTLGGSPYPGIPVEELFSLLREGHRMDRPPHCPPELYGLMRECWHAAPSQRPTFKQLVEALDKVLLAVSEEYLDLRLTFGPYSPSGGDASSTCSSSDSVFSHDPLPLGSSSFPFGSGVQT

This assay concerns the target human FGFR4 protein (460-802 amino acids) (Homo sapiens (Human), UniProt P22455). The assay can be described thus: FGFR4 Activity Inhibition Test (HTRF KinEASE-TK in vitro kinase assay). In kind it is biochemical. The note with it: compound-enzyme incubation 60 min at room temperature, kinase reaction 37° C. 40 min, 10 concentration points. As for the experimental part: The influence of the compound of the present invention on the activity of the tyrosine kinase FGFR4 was evaluated by an in vitro kinase assay experiment. The experimental method is summarized as follows: A HTRF® KinEASE™-TK 20000 tests kinase assay kit from CISBIO Corp. was used. The kit provided a biotin-labeled substrate, an EU-labeled phosphorylation site-specific antibody, and XL665-labeled avidin and a related buffer. FGFR4 phosphorylated the substrate, Eu-Ab identified the phosphorylated substrate, and XL665-SA binded to the biotin on the substrate, making Eu get closer to XL665, thus generating the HTRF signal. Changes in the activity of kinase was detected by reading the intensity of the HTRF signal. In the kinase assay experiment, there were mainly two steps of reaction: kinase reaction and assay reaction, respectively. In the kinase reaction, the kinase consumed ATP to phosphorylate the substrate, and at the same time produced a substrate containing a phosphate group. In the assay reaction, an assay reagent was added to terminate the kinase reaction. At the same time, the specific antibody and the XL665-labeled avidin in the assay reagent were binded to the phosphate group on the substrate and biotin respectively to generate HTRF signals. The signal intensity was directly proportional to the phosphorylation level of the substrate, and thereby the activity of the kinase FGFR4 could be quantitatively assayed. During the assay, the binding and incubation of the compound with the enzyme was carried out at room temperature for 60 min. The kinase reaction was carried out at a constant temperature of 37° C. for 40 min. […] The kinase substrates were TK (commercially available from Cisbio) and ATP (Sigma). The optical signals were read by a microplate reader TECAN Spark 10M plate reader (TECAN). The kinase reaction buffer comprised 1× Enzymatic buffer (CISBIO) 5 mM MgCl2 (Sigma) and 1 mM DTT (Sigma). […] First, the compound was dissolved and diluted with 100% DMSO into a 96-well plate at 3 concentrations: 4 mM, 40 μM, and 0.4 μM. […] Each concentration point was provided with two copy holes (starting point 10 μM, 3-fold dilution). First, 6 μL of the kinase solution was added into the 384-well assay plate, mixed uniformly and then incubated at room temperature for 60 min. Then 4 μL of the substrate reaction solution was added, and the total reaction volume was 10 μL. […] Subsequently, 10 μL of the kinase assay reagent was added and the reaction was terminated. Then the numerical values were read on the TECAN plate reader. The inhibition percentage was calculated based on the following formula: % inhibition=[1−(RLUcompound−RLUmin)/(RLUmax−RLUmin)]×100 wherein RLUcompound is the luminescence reading at the given compound concentration, RLUmin is the luminescence reading without the addition of kinase, and RLUmax is the luminescence reading without the addition of the compound. IC50 of the compound was calculated by the XLfit program in Excel.
In turn, `C=CC(=O)Nc1ccc(N2CCN(C)CC2)cc1-c1n[nH]c2c1CC[C@@H](c1c(F)c(OC)cc(OC)c1F)C2` (single isomer, unassigned) [Compound 301-P1, N-(2-(6-(2,6-difluoro-3,5-dimethoxyphenyl)-4,5,6,7-tetrahydro-1H-indazol-3-yl)-4-(4-methylpiperazin-1-yl)phenyl)acrylamide] came in with an IC50 of 3.4 nM. In turn, `C=CC(=O)Nc1ccc(Cl)cc1-c1n[nH]c2c1CC[C@@H](c1c(Cl)c(OC)cc(OC)c1Cl)C2` (single isomer, unassigned) [Compound 287-P2, N-(4-chloro-2-(6-(2,6-dichloro-3,5-dimethoxyphenyl)-4,5,6,7-tetrahydro-1H-indazol-3-yl)phenyl)acrylamide] came in with an IC50 of 91.1 nM. Compound `C=CC(=O)Nc1cnn(C)c1-c1n[nH]c2c1CC[C@@H](c1cc(OC)cc(OC)c1F)C2` (single isomer, unassigned) [Compound 302-P2, N-(5-(6-(2-fluoro-3,5-dimethoxyphenyl)-4,5,6,7-tetrahydro-1H-indazol-3-yl)-1-methyl-1H-pyrazol-4-yl)acrylamide] returned an IC50 of 35.4 nM. For the compound `C=CC(=O)Nc1cnn(C)c1-c1n[nH]c2c1CC[C@@H](c1cc(OC)cc(OC)c1F)C2` (single isomer, unassigned) [Compound 302-P1, N-(5-(6-(2-fluoro-3,5-dimethoxyphenyl)-4,5,6,7-tetrahydro-1H-indazol-3-yl)-1-methyl-1H-pyrazol-4-yl)acrylamide], half-maximal inhibition (IC50) required 85.5 nM.

Values taken from patent publication US11279697B2, “Aromatic derivative, preparation method for same, and medical applications thereof” (BIOARDIS LLC, priority 2017, dated 2022).
